{
  "source": "paper PMC8694051",
  "about": "(Proceedings of the National Academy of Sciences of the …, 2021)",
  "key": {"[1]": {"target": "T1, HGFA (Homo sapiens, UniProt Q04756)", "T1 sequence (Q04756 373-655)": "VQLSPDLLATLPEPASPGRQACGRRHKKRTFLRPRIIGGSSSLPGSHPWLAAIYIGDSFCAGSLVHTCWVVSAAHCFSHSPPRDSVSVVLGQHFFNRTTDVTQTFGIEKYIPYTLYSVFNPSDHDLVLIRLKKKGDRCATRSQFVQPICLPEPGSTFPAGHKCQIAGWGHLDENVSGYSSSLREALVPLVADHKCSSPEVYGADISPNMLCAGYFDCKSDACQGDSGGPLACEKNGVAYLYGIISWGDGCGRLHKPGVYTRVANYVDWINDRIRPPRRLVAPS", "assay": "HGFA enzyme inhibition (published assays)", "format": "biochemical"}, "[2]": {"target": "T2, Matriptase (Homo sapiens, UniProt Q9Y5Y6)", "T2 sequence (Q9Y5Y6 1-855)": "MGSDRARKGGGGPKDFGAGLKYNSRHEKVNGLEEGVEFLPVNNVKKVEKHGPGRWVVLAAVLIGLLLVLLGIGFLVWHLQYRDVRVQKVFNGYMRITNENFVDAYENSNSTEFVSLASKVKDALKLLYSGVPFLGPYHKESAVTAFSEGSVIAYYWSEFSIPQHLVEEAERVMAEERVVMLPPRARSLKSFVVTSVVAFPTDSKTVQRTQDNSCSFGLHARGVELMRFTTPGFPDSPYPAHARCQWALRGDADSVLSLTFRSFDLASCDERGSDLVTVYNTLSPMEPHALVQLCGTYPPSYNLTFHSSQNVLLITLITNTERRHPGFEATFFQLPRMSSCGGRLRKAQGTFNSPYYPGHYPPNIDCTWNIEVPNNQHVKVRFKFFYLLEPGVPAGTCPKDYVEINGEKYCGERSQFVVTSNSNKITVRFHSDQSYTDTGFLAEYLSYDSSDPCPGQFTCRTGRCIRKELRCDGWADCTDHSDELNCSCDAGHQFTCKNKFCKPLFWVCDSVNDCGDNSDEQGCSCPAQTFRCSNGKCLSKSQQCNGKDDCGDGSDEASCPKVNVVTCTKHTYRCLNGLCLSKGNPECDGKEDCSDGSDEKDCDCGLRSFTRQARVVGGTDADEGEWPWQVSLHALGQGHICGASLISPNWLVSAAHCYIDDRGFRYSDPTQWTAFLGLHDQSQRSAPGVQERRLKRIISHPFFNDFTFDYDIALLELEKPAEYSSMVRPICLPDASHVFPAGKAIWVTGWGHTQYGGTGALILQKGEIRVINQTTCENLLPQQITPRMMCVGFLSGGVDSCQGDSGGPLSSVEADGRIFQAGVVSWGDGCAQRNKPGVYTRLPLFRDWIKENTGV", "assay": "Matriptase enzyme inhibition (published assays)", "format": "biochemical"}, "[3]": {"test_system": "VSV-MERS", "assay": "microbe, parasite or virus in culture", "format": "cell-based, MERS-CoV", "conditions": "Middle East respiratory syndrome-related coronavirus, Calu-3, read-out: MERS VSV pseudotype Calu-3 EC50 (nM)"}, "[4]": {"target": "Factor Xa (Homo sapiens, UniProt P00742)", "sequence (P00742 235-488 limits assumed)": "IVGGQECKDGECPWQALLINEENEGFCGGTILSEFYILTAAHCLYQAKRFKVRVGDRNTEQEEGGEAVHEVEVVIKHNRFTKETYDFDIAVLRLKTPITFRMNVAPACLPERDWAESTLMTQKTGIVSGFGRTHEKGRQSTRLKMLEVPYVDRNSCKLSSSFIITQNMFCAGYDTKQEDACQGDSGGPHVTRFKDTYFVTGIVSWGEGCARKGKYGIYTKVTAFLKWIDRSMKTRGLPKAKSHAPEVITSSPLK", "sequence (P00742 41-179 partner limits assumed)": "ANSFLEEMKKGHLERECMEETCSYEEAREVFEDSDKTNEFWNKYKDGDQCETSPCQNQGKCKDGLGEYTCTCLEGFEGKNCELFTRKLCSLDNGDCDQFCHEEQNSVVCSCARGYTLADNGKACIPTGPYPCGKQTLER", "assay": "Factor Xa enzyme inhibition (published assays)", "format": "biochemical"}, "[5]": {"test_system": "VSV-SARS-CoV-2-Spike protein Pseudotype virus", "assay": "microbe, parasite or virus in culture", "format": "cell-based", "conditions": "Vesicular stomatitis virus, Calu-3, read-out: VSV-SARS-CoV-2 Calu-3 EC50 (nM)"}, "[6]": {"target": "Chymase (Homo sapiens, UniProt P23946)", "sequence (P23946 22-247, species assumed)": "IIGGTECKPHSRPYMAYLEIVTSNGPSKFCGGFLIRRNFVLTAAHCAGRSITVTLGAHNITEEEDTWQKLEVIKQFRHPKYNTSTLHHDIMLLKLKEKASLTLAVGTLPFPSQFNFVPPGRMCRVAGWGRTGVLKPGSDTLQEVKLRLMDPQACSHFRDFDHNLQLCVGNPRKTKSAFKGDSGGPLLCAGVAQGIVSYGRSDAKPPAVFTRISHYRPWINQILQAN", "assay": "Protease profiling panel, 10-dose IC50", "format": "biochemical"}, "[7]": {"target": "Cathepsin G (Homo sapiens, UniProt P08311)", "sequence (P08311 21-255, species assumed)": "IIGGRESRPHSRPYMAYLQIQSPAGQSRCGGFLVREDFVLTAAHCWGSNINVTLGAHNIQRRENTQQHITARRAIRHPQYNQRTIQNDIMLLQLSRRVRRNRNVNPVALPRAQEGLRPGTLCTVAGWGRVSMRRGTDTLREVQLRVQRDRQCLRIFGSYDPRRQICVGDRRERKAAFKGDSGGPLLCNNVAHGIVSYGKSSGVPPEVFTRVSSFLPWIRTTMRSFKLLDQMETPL", "assay": "Protease profiling panel, 10-dose IC50", "format": "biochemical"}, "[8]": {"assay": "in vitro", "conditions": "mouse, plasma"}, "[9]": {"target": "Thrombin (Homo sapiens, UniProt P00734)", "assay": "Thrombin enzyme inhibition (published assays)", "format": "biochemical"}, "[10]": {"test_system": "wild-type SARS-CoV-2", "assay": "microbe, parasite or virus in culture", "format": "cell-based", "conditions": "Severe acute respiratory syndrome coronavirus 2, Calu-3, 72 h, read-out: SARS-CoV-2 Wild-type Calu-3 IC50 (nM)"}, "[11]": {"assay": "in vitro", "conditions": "human, plasma"}, "[12]": {"target": "FVIIa (Homo sapiens, UniProt P08709)", "sequence (P08709 213-466 limits assumed)": "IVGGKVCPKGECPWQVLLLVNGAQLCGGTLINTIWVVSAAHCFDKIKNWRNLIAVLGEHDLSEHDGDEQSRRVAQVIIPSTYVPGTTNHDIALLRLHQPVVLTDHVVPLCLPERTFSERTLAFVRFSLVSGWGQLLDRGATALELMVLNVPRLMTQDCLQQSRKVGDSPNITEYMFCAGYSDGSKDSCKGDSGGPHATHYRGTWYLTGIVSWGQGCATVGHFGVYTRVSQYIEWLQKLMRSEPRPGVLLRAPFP", "sequence (P08709 61-212 partner limits assumed)": "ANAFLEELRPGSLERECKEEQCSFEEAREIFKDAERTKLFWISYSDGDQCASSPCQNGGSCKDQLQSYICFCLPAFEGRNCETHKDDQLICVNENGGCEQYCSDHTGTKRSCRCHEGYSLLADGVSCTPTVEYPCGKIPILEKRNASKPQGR", "assay": "Protease profiling panel, 10-dose IC50", "format": "biochemical"}, "[13]": {"target": "Caspase 14 (Homo sapiens, UniProt P31944)", "sequence (P31944 6-242, species assumed)": "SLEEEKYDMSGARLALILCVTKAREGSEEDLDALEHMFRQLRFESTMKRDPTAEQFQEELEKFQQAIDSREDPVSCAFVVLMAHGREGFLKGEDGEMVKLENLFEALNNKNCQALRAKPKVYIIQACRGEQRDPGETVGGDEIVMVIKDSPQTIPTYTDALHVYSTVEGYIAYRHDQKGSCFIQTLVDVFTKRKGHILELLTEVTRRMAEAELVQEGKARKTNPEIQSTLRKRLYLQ", "assay": "Protease profiling panel, 10-dose IC50", "format": "biochemical"}},
  "note": "Residues, ends and D or L forms follow the SMILES beside them.",
  "data": [
    {"smiles": "CN(C)C(=O)COC(=O)Cc1ccc(OC(=O)c2ccc(NC(=N)N)cc2)cc1", "note": "[Camostat, reference compound]", "values": [
      {"measurement": "IC50", "setting": "[1]", "value": "> 20000", "unit": "nM"},
      {"measurement": "IC50", "setting": "[2]", "value": 7, "unit": "nM"},
      {"measurement": "EC50", "setting": "[3]", "value": 5, "unit": "nM"},
      {"measurement": "IC50", "setting": "[4]", "value": "> 20000", "unit": "nM"},
      {"measurement": "EC50", "setting": "[5]", "value": 83, "unit": "nM"}
    ]},
    {"smiles": "CC(C)C[C@H](NC(=O)[C@@H](NC(=O)N[C@@H](Cc1ccccc1)C(=O)O)[C@@H]1CCN=C(N)N1)C(=O)N[C@H](C=O)Cc1ccccc1", "note": "[Chymostatin]", "values": [
      {"measurement": "IC50", "setting": "[6]", "value": 10.1, "unit": "nM"},
      {"measurement": "IC50", "setting": "[7]", "value": 4040, "unit": "nM"}
    ]},
    {"smiles": "CC(=O)N[C@@H](CCC(N)=O)C(=O)N[C@@H](Cc1ccccc1)C(=O)N[C@@H](CCCNC(=N)N)C(=O)c1nc2ccccc2s1", "note": "[Compound 6, Ac-QFR-kbt]", "values": [
      {"measurement": "IC50", "setting": "[1]", "value": 14, "unit": "nM"},
      {"measurement": "half-life", "setting": "[8]", "value": "> 4.82", "unit": "h"},
      {"measurement": "IC50", "setting": "[9]", "value": "> 20000", "unit": "nM"},
      {"measurement": "IC50", "setting": "[10]", "value": 105, "unit": "nM"},
      {"measurement": "half-life", "setting": "[11]", "value": "> 4.82", "unit": "h"},
      {"measurement": "IC50", "setting": "[4]", "value": 1.4, "unit": "nM"}
    ]},
    {"smiles": "N=C(N)c1ccc2nc(-c3cc(CC(=O)N[C@@H](CC(=O)O)C(=O)O)cc(-c4cc(S(N)(=O)=O)ccc4O)c3O)[nH]c2c1", "note": "[PCI 27483]", "values": [
      {"measurement": "IC50", "setting": "[12]", "value": 57.5, "unit": "nM"}
    ]},
    {"smiles": "CC(=O)N[C@@H](Cc1c[nH]c2ccccc12)C(=O)N[C@@H](CCC(=O)O)C(=O)N[C@@H](Cc1cnc[nH]1)C(=O)N[C@H](C=O)CC(=O)O", "note": "[WEHD-CHO] (Ac-WEHD-aldehyde)", "values": [
      {"measurement": "IC50", "setting": "[13]", "value": 68.2, "unit": "nM"}
    ]}
  ]
}
